Experimental data as given in patent publication US11883430B2, “CD38-NAD+ regulated metabolic axis in anti-tumor immunotherapy” (MUSC FOUNDATION FOR RESEARCH DEVELOPMENT, priority 2016, dated 2024).

Legend:
B16-F10 melanoma = assay: Adoptive T cell transfer, s.c. B16-F10 melanoma in C57BL/6 mice, tumor growth; format: in vivo, mouse; conditions: TRP-1 Th1/17 differentiated with DON 3 μM vs DMSO, 0.5×10^6 cells (FIG. 3P)
Description: Adoptive T cell protocol: B16-F10 or B16-F10-A2^+ mouse melanoma tumor cells (2.5×10^6) were injected subcutaneously (s.c.) into left flank of 8-10 weeks old C57BL/6 or HLA-A2^+ (or HLA-A2^+-RAG^−/−) mice respectively. After 9 days of tumor establishment, recipient mice were injected (i.p) with cyclophosphamide (4 mg/mice) before adoptively transferring (i.v) either h3T (CD4^+Vβ12^+) or TRP-1 (CD4^+Vβ14^+) Th1, Th17, Th1/17 cells on day 10. Similarly, Pmel (CD8^+Vβ13^+) and TCR-I (CD8^+Sv40 antigen specific) Tc1, Tc17 and Tc1/17 cells were adoptively transferred (i.v) into either 9 days established B16-F10 tumor bearing mice or TRAMP (spontaneously develop prostate tumor) respectively. For in vivo neutralization of IFNγ and IL17, neutralizing antibody to IFNγ and IL17 or matched isotype antibody was injected (100 μg/mouse; i.p.) in tumor bearing mice following adoptive transfer of T cells. In some experiments, tumor bearing mice received anti-CD38 antibody (50 μg/mouse; i.p.) after adoptive TRP-1 Th0 cells transfer. Recipient mice were given IL2 (50,000 U/mouse; i.p) for 3 consecutive days after ACT.

NAD+ = assay: Intracellular NAD+ level; format: cell-based, mouse; conditions: Th1/17 differentiated with 2DG 1 mM, DON 3 μM or FK866 10 nM (FIGS. 11K, 11L)
Description: NAD^+, Sirt1 activity and Foxo1 activity assay: Intracellular NAD^+ level in T cells were measured spectrophotometrically following the manufacturer's protocol (Cayman chemical, Ann Arbor, MI). Using equal amounts of nuclear protein extracted by NE-PER Nuclear and Cytoplasmic Extraction Reagents (Thermo Fisher Scientific, Waltham, MA), Sirt1 activity (Universal Sirt1 Activity Assay Kit, Abcam, Cambridge, MA) and Foxo1 activity (FKHR transcription Factor Assay Kit, Active Motif, Carlsbad, CA) were determined as per manufacturer's protocol.

Th1/17 cells [1] = assay: Glutamine uptake assay (radiolabelled glutamine); format: cell-based, mouse; conditions: DON pre-treatment, different conc. (FIG. 3O)
Description: Glutamine uptake assay: Ex vivo programmed Th cell subsets (1×10^6 cells) were starved in glutamine free RPMI-1640 media (Thermo Fisher Scientific, Cat #21870-076) for 15 min before incubated with L-2,3,4-[^3H] glutamine (0.5 mCi, PerkinElmer) for 10 min at room temperature. Cells were lysed in 500 μl of lysis buffer (Sigma-Aldrich, St. Louis, MO) and radioactivity was measured by liquid scintillation.

Th1/17 cells [2] = assay: Viable cells by FACS live/dead dye staining; format: cell-based, mouse; conditions: cultured in presence of DON 3 μM; compared to Th1 or Th17 cell (FIG. 11H)
Description: FIGS. 11A-11L: Metabolic commitment of Th1, Th17 and Th1/17 cells (see FIGS. 3-4). (A-C) In vitro differentiated murine Th1, Th17 and Th1/17 cells were used for determining: (A) intracellular expression of various glycolytic enzymes, (B) cell surface expression of different amino acid transporters, and (C) intracellular expression of glutaminolytic enzymes by flow cytometry. Data are representative of three independent experiments with similar results. (D) Western blot analysis determined the protein level of various glutamine transporters and glutaminolytic enzymes in in vitro differentiated Th1, Th17 and Th1/17 cells. β-actin was used as a loading control. Data are representative of two independent experiments with similar results. (E-F) Purified CD4^+ T cells were differentiated to Th1, Th17 and Th1/17 cells either in presence or absence of 2DG (1 mM) or DON (3 μM) and characterized for: (E) intracellular cytokine secretion after restimulating them with PMA and ionomycin for 4 hr, (F) determining the frequency of cells that were IFNγ^+, IL17^+ or IFNγ^+IL17^+ in each treatment groups and presented using scatter plot. Statistical comparison between treated and untreated groups are indicated. […] (I) Purified CD4^+ T cells were differentiated into Th1, Th17 and Th1/17 cells and intracellular metabolites were measured using mass spectrometry. […]

Th1/17 cells [3] = assay: Intracellular cytokine (IFNγ, IL17) flow cytometry after PMA and ionomycin; format: cell-based, mouse
From the text: T cell differentiation: Naïve CD4^+ T cells were purified from the total splenocytes of 6-9 weeks old WT (C57BL/6) and KO (Foxo1^fl/flLck^cre, Sirt1^fl/flCD4^cre, CD38KO) mice using CD4^+ T cell isolation kit (Miltenyi Biotec) according to manufacturer's protocol. Total splenocytes from 6-9 weeks old TCR transgenic mouse TRP-1 (bears class-II restricted CD4^+ T cells) or Pmel (bears class-I restricted CD8^+ T cells) or TCR-I (bears class-I restricted CD8^+ T cells) were also used. Within experiments mice were age and sex matched. Purified naïve CD4^+ T cells or total splenocytes were differentiated to Th1 or Tc1 (10 ng/ml IL12, 50 U/ml IL2 and 10 μg/ml anti-IL4), Th17 or Tc17 (3 ng/ml TGFβ, 25 ng/ml IL6, 10 μg/ml anti-IL4 and 10 μg/ml anti-IFNγ), Th1/17 or Tc1/17 (20 ng/ml IL1β, 25 ng/ml IL6, 10 ng/ml IL12, 20 ng/ml IL23, 400 pg/ml TGFβ, 10 μg/ml anti-IL4, 5 μg/ml anti-IFNγ), iTreg (5 ng/ml TGFβ, 100 IU/ml IL2, 10 μg/ml anti-IL4 and 10 μg/ml anti-IFNγ or Th0 (50 IU/ml IL2) in presence of plate bound anti-CD3 (5 μg/ml) and anti-CD28 (5 μg/ml). For TRP-1, gp100 or Sv40 specific generation of different Th or Tc subsets, total splenocytes from either TRP-1, Pmel or TCR-I TCR transgenic mice were stimulated with 1 μg/ml respective peptides in presence of above-mentioned polarizing conditions. T cells were differentiated for three days in IMDM media supplemented with 10% FCS, 4 mM L-glutamine, 100 U/ml penicillin, 100 μg/ml streptomycin, 55 μM beta-mercaptoethanol under 7% CO2, atmospheric oxygen at 37° C. in a humidified incubator. For evaluation of intracellular cytokines by flow cytometry, T cells were re-stimulated with PMA (500 ng/ml) and Ionomycin (500 ng/ml) for 4 hr in presence of Glogi inhibitors. […]
Flow cytometry: Staining for cell surface markers was performed by incubating cells with antibody at 1:200 dilutions in FACS buffer (0.1% BSA in PBS) for 30 min at 4° C. […] Samples were acquired on LSRFortessa and analysed with FlowJo software (Tree Star, OR).

[4] = tested on: B16-F10-HLA-A2+ murine melanoma; assay: Adoptive T cell transfer, s.c. B16-F10-HLA-A2+ melanoma, tumor growth; format: in vivo, mouse; conditions: Th1/17 differentiated ex vivo with FK866 or Ex527 vs untreated/vehicle (FIGS. 4E, 5F)
Th1/17 cells [5] = assay: qPCR gene expression in Th1/17 cells; format: cell-based, mouse; conditions: Th1/17 differentiated with FK866 10 nM or Ex527 (FIGS. 4D, 5D)
Description: Real-time quantitative-PCR: Total RNA was extracted from pellets of the indicated T cell subsets (2×10^6 cells) using Trizol reagent (Life technologies, Grand Island, NY). cDNA was generated from 1 μg total RNA using iScript cDNA Synthesis Kit (BioRad, Hercules, CA). SYBR Green incorporation quantitative real-time PCR was performed using a SYBR Green mix (Biorad, Hercules, CA) in the CFX96 Detection System (BioRad, Hercules, CA). Expression of different genes was quantified relative to Actb.

Th1 cells = assay: Intracellular cytokine (IFNγ, IL17) flow cytometry after PMA and ionomycin; format: cell-based, mouse; conditions: Th1 subsets (FIGS. 12A and 12B)
Description: FIGS. 12A-12D: Loss of Sirt1 expression and NAD+ levels on Th1/17 cell phenotype and function (see FIG. 5). (A) Purified CD4^+ T cells from C57BL/6 were used to differentiate to Th1/17 cells either alone or in the presence of Ex527, a pharmacological inhibitor of Sirt1. Cells were then restimulated with PMA and ionomycin for 4 hr in presence of golgi block to stain for intracellular accumulation of cytokines IFNγ and IL17. (B) Th1 cells were cultured either in presence or absence of NAD+ inhibitor FK866 (10 nM) and intracellular staining was performed for IFNγ and IL17. Data was acquired using FACS and analysis was carried out using FlowJo software. (C-D) Purified splenic CD4^+ T cells from either C57BL/6 WT or Sirt1fl/flCD4Cre (Sirt1KO) mouse were used to ex vivo program for Th1/17 cells. RNA was prepared and quantitative PCR analysis was performed for the expression of various glycolysis (C) and glutaminolysis (D) associated genes in either WT or Sirt1KO Th1/17 cells. Data in section A-D are representative of three independent experiments.
T cell differentiation: Naïve CD4^+ T cells were purified from the total splenocytes of 6-9 weeks old WT (C57BL/6) and KO (Foxo1^fl/flLck^cre, Sirt1^fl/flCD4^cre, CD38KO) mice using CD4^+ T cell isolation kit (Miltenyi Biotec) according to manufacturer's protocol. […]

Th1/17 cells [6] = assay: Global acetylation of nuclear protein, western blot; format: cell-based, mouse; conditions: Nampt inhibitor FK866 treatment (FIG. 6A, FIG. 13A)
Description: Immunoblotting and Immunoprecipitation of Foxo1: For evaluation of global protein acetylation, cells were lysed using NE-PER Nuclear and Cytoplasmic Extraction Reagents (Thermo Fisher Scientific, Waltham, MA) and nuclear fraction was isolated according to the manufacturer's protocol. Equal amounts of nuclear protein (20 μg) were separated by 4%-12% SDS-PAGE and then transferred to nitrocellulose membranes. The membranes were probed with anti-Acetyl-Lysine antibody (Cell Signaling Technologies, Danvers, MA) followed by incubation with secondary antibody (HRP-conjugated goat anti-rabbit IgG at 1:3000 dilutions) for overnight at 4° C. Pre-stained molecular weight and magic markers were run in parallel to identify the molecular weight of proteins. For chemiluminescent detection, the membranes were treated with enhanced chemiluminescent reagent, and the signal was monitored using a Biorad Versadoc imaging system (Biorad, Hercules, CA). Same membrane was stripped with stripping buffer (Bioland Scientific, Paramount, CA) according to manufacturer's protocol and re-probed with antibody specific to histone H3 (Cell Signaling Technologies, Danvers, MA) as reference control.

Foxo1 = assay: Confocal imaging of Foxo1 localization in Th17 and Th1/17 cells; format: cell-based, mouse; conditions: Th17 and Th1/17 cells programmed with SC-79 0.5 μg/ml (FIG. 13H)

Compound	anti-tumor response of DON pre-treated Th1/17 cells upon ACT (B16-F10 melanoma)	NAD+ levels in Th1/17 cells (NAD+)	uptake of radio labelled glutamine (Th1/17 cells [1])	viability of Th1/17 cells (Th1/17 cells [2])	IFNγ+IL-17+ secreting fraction (Th1/17 cells [3]; DON 3 μM in differentiation media from day 0 (FIGS. 11E, 11F))	tumor control by inhibitor-treated Th1/17 cells upon adoptive transfer [4]	expression of stemness-associated genes (Th1/17 cells [5])	IFNγ secreting fraction (Th1 cells)	reduced global acetylation of Th1/17 cells (Th1/17 cells [6])	frequency of IL17+IFNγ+ population (Th1/17 cells [3]; FK866 10 nM in differentiation media from day 0 (FIG. 4C))	nuclear Foxo1 levels (Foxo1)
[N-]=[N+]=CC(=O)CC[C@H](N)C(=O)O [DON, 6-Diazo-5-oxo-L-norleucine]	significant attenuation of the anti-tumor response upon ACT	significantly reduced NAD^+ levels	reduced the uptake of radio labelled glutamine in a dose dependent manner	reduced by two-folds	reduction in IFNγ^+IL-17^+ secreting fraction	–	–	–	–	–	–
O=C(/C=C/c1cccnc1)NCCCCC1CCN(C(=O)c2ccccc2)CC1 [FK866]	–	depletion of NAD^+	–	–	–	failed to exhibit potent tumor control upon adoptive transfer	reduced expression of stemness-associated molecules such as Tcf7, Bcl6, and β-catenin	No significant difference	reversed to a certain extent	two-fold decrease in the frequency of IL17^+IFNγ^+ population	–
CCOC(=O)C1=C(N)Oc2ccc(Cl)cc2C1C(C#N)C(=O)OCC (stereo not drawn) [SC-79]	–	–	–	–	–	–	–	–	–	–	reduced nuclear Foxo1 levels
